The values that follow are results of earlier work, collected in patent US6576233B2 (priority 1996, dated 2003).

SMILES strings stand for the structures.

For data set [1] the following is noted: Ferris et al. 1989.
The test system of the next data set is people. The following applies: daily supplement, more than 1,300 people.

`[Se]` [Selenium, selenium]: in data set [1], the “dosage reported as safe” value is on record as 600 micrograms per day. The “reduction of overall cancer risk” value with people is around 40%.
